Like-named read-outs stand apart in the source and are kept apart here.
Tested on: 134 cancer cell lines
Test: Cell viability assay (ATPlite, 72 hours), IC50 on cancer cell line panel

SMILES: CCc1cc2c(cc1N1CCC(N3CCOCC3)CC1)C(C)(C)c1[nH]c3cc(C#N)ccc3c1C2=O [alectinib]
- IC50 (Homo sapiens, LoVo, read-out: IC50 in cell proliferation assay): > 10 µM
- IC50 (Homo sapiens, MCF7, read-out: IC50 in cell proliferation assay): > 10 µM
- IC50 (Homo sapiens, MDA-MB-231, read-out: IC50 in cell proliferation assay): > 10 µM
- IC50 (Homo sapiens, MDA-MB-453, read-out: IC50 in cell proliferation assay): > 10 µM
- IC50 (Homo sapiens, MDA-MB-468, read-out: IC50 in cell proliferation assay): > 10 µM
- IC50 (Homo sapiens, MG-63, read-out: IC50 in cell proliferation assay): > 10 µM
- IC50 (Homo sapiens, MIA PaCa-2, read-out: IC50 in cell proliferation assay): > 10 µM
- IC50 (Homo sapiens, MKN-45, read-out: IC50 in cell proliferation assay): > 10 µM
- IC50 (Homo sapiens, MOLM-13, read-out: IC50 in cell proliferation assay): 0.99 µM
- IC50 (Homo sapiens, MOLT-4, read-out: IC50 in cell proliferation assay): > 10 µM
- IC50 (Homo sapiens, MV4-11, read-out: IC50 in cell proliferation assay): 1.07 µM
- IC50 (Homo sapiens, MeWo, read-out: IC50 in cell proliferation assay): > 10 µM
- IC50 (Homo sapiens, NCCIT, read-out: IC50 in cell proliferation assay): > 3.16 µM
- IC50 (Homo sapiens, NCI-H82, read-out: IC50 in cell proliferation assay): > 10 µM
- IC50 (Homo sapiens, NCI-H460, read-out: IC50 in cell proliferation assay): > 10 µM
- IC50 (Homo sapiens, NCI-H661, read-out: IC50 in cell proliferation assay): > 10 µM
- IC50 (Homo sapiens, NCI-H716, read-out: IC50 in cell proliferation assay): 2.51 µM
- IC50 (Homo sapiens, NCI-H1650, read-out: IC50 in cell proliferation assay): 1.66 µM
- IC50 (Homo sapiens, NCI-H1975, read-out: IC50 in cell proliferation assay): 0.743 µM
- IC50 (Homo sapiens, NCI-H2228, read-out: IC50 in cell proliferation assay): 0.039 µM
- IC50 (Homo sapiens, OVCAR-3, read-out: IC50 in cell proliferation assay): > 10 µM
- IC50 (Homo sapiens, PFSK-1, read-out: IC50 in cell proliferation assay): 3.48 µM
- IC50 (Homo sapiens, RL95-2, read-out: IC50 in cell proliferation assay): 1.33 µM
- IC50 (Homo sapiens, RPMI-7951, read-out: IC50 in cell proliferation assay): > 10 µM
- IC50 (Homo sapiens, RS4-11, read-out: IC50 in cell proliferation assay): > 10 µM
- IC50 (Homo sapiens, Rec1, read-out: IC50 in cell proliferation assay): 1.24 µM
- IC50 (Homo sapiens, SHP77, read-out: IC50 in cell proliferation assay): > 10 µM
- IC50 (Homo sapiens, SK-BR-3, read-out: IC50 in cell proliferation assay): > 10 µM
- IC50 (Homo sapiens, SK-N-AS, read-out: IC50 in cell proliferation assay): 7.73 µM
- IC50 (Homo sapiens, SK-N-FI, read-out: IC50 in cell proliferation assay): 7.44 µM
- IC50 (Homo sapiens, SK-N-MC, read-out: IC50 in cell proliferation assay): > 10 µM
- IC50 (Homo sapiens, SK-N-SH, read-out: IC50 in cell proliferation assay): 2.43 µM
- IC50 (Homo sapiens, SNU-5, read-out: IC50 in cell proliferation assay): > 10 µM
- IC50 (Homo sapiens, SNU-16, read-out: IC50 in cell proliferation assay): > 10 µM
- IC50 (Homo sapiens, SNU-C2B, read-out: IC50 in cell proliferation assay): > 10 µM
- IC50 (Homo sapiens, SU-DHL-1, read-out: IC50 in cell proliferation assay): 0.432 µM
- IC50 (Homo sapiens, SU-DHL-6, read-out: IC50 in cell proliferation assay): > 10 µM
- IC50 (Homo sapiens, SUP-T1, read-out: IC50 in cell proliferation assay): > 10 µM
- IC50 (Homo sapiens, SW48, read-out: IC50 in cell proliferation assay): > 10 µM
- IC50 (Homo sapiens, SW480, read-out: IC50 in cell proliferation assay): > 10 µM
- IC50 (Homo sapiens, SW626, read-out: IC50 in cell proliferation assay): > 10 µM
- IC50 (Homo sapiens, SW780, read-out: IC50 in cell proliferation assay): 1.67 µM
- IC50 (Homo sapiens, SW837, read-out: IC50 in cell proliferation assay): > 10 µM
- IC50 (Homo sapiens, SW872, read-out: IC50 in cell proliferation assay): > 10 µM
- IC50 (Homo sapiens, SW900, read-out: IC50 in cell proliferation assay): > 10 µM
- IC50 (Homo sapiens, SW948, read-out: IC50 in cell proliferation assay): > 10 µM
- IC50 (Homo sapiens, SW982, read-out: IC50 in cell proliferation assay): > 10 µM
- IC50 (Homo sapiens, SW-620, read-out: IC50 in cell proliferation assay): > 10 µM
- IC50 (Homo sapiens, T98G, read-out: IC50 in cell proliferation assay): > 10 µM
- IC50 (Homo sapiens, TCC-SUP, read-out: IC50 in cell proliferation assay): 3.7 µM
- IC50 (Homo sapiens, THP-1, read-out: IC50 in cell proliferation assay): > 10 µM
- IC50 (Homo sapiens, U2OS, read-out: IC50 in cell proliferation assay): 3.79 µM
- IC50 (Homo sapiens, U-87 MG, read-out: IC50 in cell proliferation assay): 3.1 µM
- IC50 (Homo sapiens, U-118-MG, read-out: IC50 in cell proliferation assay): 3.33 µM
- IC50 (Homo sapiens, UMUC3, read-out: IC50 in cell proliferation assay): 3.3 µM
- IC50 (Hs766T, read-out: IC50 in cell proliferation assay): > 10 µM
- IC50 (L-82, read-out: IC50 in cell proliferation assay): 0.037 µM
- IC50 (Rh30, read-out: IC50 in cell proliferation assay): > 10 µM
